Results: paper PMC13234881, “Synthesis and Cytotoxicity of Complex Betulinic Acid Amides” (ACS Omega, 2026)

Assays:
[1] = system: breast carcinoma MCF7; assay: Cytotoxicity screening test, MCF7; assay type: cell-based; conditions: Homo sapiens; MCF7 breast adenocarcinoma, 72 h; read-out: Cytotoxicity IC50 ± SD, MCF7
Excerpt: (§1) The screening cell lines, T-lymphoblastic leukemia CCRF-CEM, breast carcinoma MCF7, cervical carcinoma HeLa, and human foreskin fibroblasts BJ, were obtained from the American Type Culture Collection (Manassas, VA, USA). The procedure for cell culturing has already been described. ,

[2] = system: cervical carcinoma HeLa; assay: Cytotoxicity screening test, HeLa; assay type: cell-based; conditions: Homo sapiens; HeLa cervical cancer, 72 h; read-out: Cytotoxicity IC50 ± SD, HeLa
Excerpt: as §1

SMILES: COc1cccc2c1C(=O)c1c(O)c3c(c(O)c1C2=O)C[C@@](O)(C(=O)CO)C[C@@H]3O[C@H]1C[C@H](N)[C@H](O)[C@H](C)O1 [doxorubicin]
- IC50 [1]: 273 ± 19 nM
- IC50 [2]: 868 ± 54 nM
